Assay results published in the OPERA property sets (Mansouri et al. 2018).
≈ marks a conversion by molar mass, not a printed value.

SMILES | logP | solubility
COC(=O)C(c1ccccc1)C(C)C (stereo not drawn) | 3.33 | 
CC(=O)N(C)S(=O)(=O)c1ccc(C)cc1 | 1.73 | 
CNC(=O)CCc1c[nH]c2ccccc12 | 1.23 | 
O=C(Nc1ccccc1)n1cc(F)c(=O)[nH]c1=O | 1.5 | 
CS/C(C)=N/O | 1.12 | 
CCN1CCCC1CNC(=O)c1c(OC)ccc(Br)c1O (stereo not drawn) | 2 | 
CN1C(=O)CCC1(O)c1cccnc1 (stereo not drawn) | -0.57 | 
Nc1cccc2c(N)cccc12 | 0.89 | 
CC(C)(C)C(O)C(Oc1ccc(Cl)cc1)n1cncn1 (stereo not drawn) | 2.9 | 
Cc1cc(Cc2ccc(Cl)c(Cl)c2)c(Cl)cc1Cl | 7.26 | 
CSc1ccc(C=C(C#N)C#N)o1 | 2.45 | 
CCCN(CCC)C1COc2c(O)cccc2C1 (stereo not drawn) | 3.3 | 
C=C(C)C(N)=O | -1.11 | 
COc1cc(Cl)c(Cl)cc1Cl | 3.85 | 
c1ccc2c(c1)ccc1nc3c(ccc4ccccc43)cc12 | 5.73 | 
CN1CC=C(c2ccc(Cl)cc2)CC1 | 3.32 | 
N=C(N)NN=Cc1cccc([N+](=O)[O-])c1 | 0.01 | 
OC(CN1C2CCOCC21)Cn1ccnc1 (stereo not drawn) | 0.07 | 
O=C(O)C1C2CCC(O2)C1C(=O)O (stereo not drawn) | 1.91 | 
Cc1cc(OCCN(C)C)c(C(C)C)cc1OC1CCCCC1=O (stereo not drawn) | 3.63 | 
NCCc1nc(-c2ccccc2)cs1 | 2.22 | 
S=C=Nc1ccc(I)cc1 | 4.22 | 
CN(C)C(N)=S | -0.43 | 
CC(CC(=O)c1ccccc1)C(=O)O (stereo not drawn) | 1.62 | 
CC(C)CC=O |  | 163000 µM (≈ 14000 µg/mL)
Nc1ccc(Cc2ccc(N)c(Cl)c2)cc1Cl |  | 52 µM (≈ 13.9 µg/mL)

SMILES | logP | solubility
N#CCCCCCC#N | 0.05 | 
O=C1c2cc([N+](=O)[O-])ccc2-c2ccc([N+](=O)[O-])cc21 | 2.84 | 
Clc1cc2c(Cl)ccc(Cl)c2cc1Cl | 5.81 | 
CCCN1C(=O)C(=Cc2ccc([N+](=O)[O-])o2)SC1=NC(C)=O | 1.17 | 
COc1cc(OC)ncn1 | 0.96 | 
Nc1ccc(C(=O)NCC(=O)O)cc1 | -0.89 | 
CC(C)c1cccc(-c2ccccc2)c1 | 5.33 | 
N#CCCOc1cccc2ccccc12 | 2.8 | 
CC(C)NC1=NC(=O)C(=Cc2ccc([N+](=O)[O-])o2)S1 | 1.29 | 
c1ccc2cc3c(ccc4ccccc43)cc2c1 | 5.76 | 
NS(=O)(=O)c1nc2ccc([N+](=O)[O-])cc2s1 | 1.36 | 
Cc1cccc2c1ccc1ccccc12 | 5.08 | 
CCCS(=O)c1ccc2[nH]c(NC(=O)OC)nc2c1 (stereo not drawn) | 1.27 | 
CCCC(=O)n1ncc2c(O)ncnc21 | 0.85 | 
CC(CCC(=O)O)C1CCC2C3C(O)CC4CC(O)CCC4(C)C3CCC12C (stereo not drawn) | 3 | 
CCN1CCC[C@H]1CNC(=O)c1c(OC)ccc(Br)c1OC | 2.1 | 
O=[N+]([O-])c1ccc(Cl)c([N+](=O)[O-])c1 | 2.17 | 
CC1=NS(=O)(=O)c2ncccc2N1 | -0.91 | 
NS(=O)(=O)c1nc2ccc(OCc3ccccc3)cc2s1 | 3.18 | 
Nc1ccc([N+](=O)[O-])cn1 | 0.65 | 
CC(Oc1ccc(Oc2ccc(C(F)(F)F)cn2)cc1)C(=O)O (stereo not drawn) | 3.18 | 
COc1c(Cl)cc(Cl)cc1Cl | 4.11 | 
Cc1cc(Cc2c(Cl)cccc2Cl)c(Cl)cc1Cl | 6.73 | 
CSc1nc(N)nc(C(Cl)(Cl)Cl)n1 | 3.12 | 
COc1nc(C)nc(NC(=O)NS(=O)(=O)c2ccccc2Cl)n1 | 2 | 
COc1ccc(C(=O)CCC(=O)O)cc1 | 1.38 | 

SMILES | logP | solubility
O=C(O)C(c1ccc(Cl)cc1)c1ccc(Cl)cc1 | 4.64 | 
O=[N+]([O-])c1cncn1CCN1CCOCC1 | 0.07 | 
CCCCOCCOCCCC | 2.48 | 
O=C(Nc1ccc(Cl)cc1)c1cc([N+](=O)[O-])ccc1O | 2.54 | 
Cl.Cl.O=C1c2c(O)ccc(O)c2C(=O)c2c(NCCNCCO)ccc(NCCNCCO)c21 |  | 14500 µM
Clc1ccc(Nc2cc3nc4ccccc4n(-c4ccc(Cl)cc4)c-3cc2=NCCCN2CCCC2)cc1 | 7.17 | 
CC(=O)Oc1cc(C(C)C)c(OCCN(C)C)cc1C | 3.17 | 
c1ncncn1 | 0.12 | 
NS(=O)(=O)c1cccc2ccccc12 | 1.55 | 
FC(F)(F)c1cccc(Cn2cncn2)c1 | 1.74 | 
Cc1ccc(C)c(C)n1 | 2.05 | 
C[N+](C)(C)CC1CCCC1.[I-] | -2 | 
Clc1ccc(Cn2cncn2)cc1 | 1.84 | 
COc1ccc(C(C)NCCC(c2ccccc2)c2ccccc2)cc1OC (stereo not drawn) | 5.8 | 
CCCC(O)CC (stereo not drawn) | 1.65 | 
Oc1c(O)c(Cl)c(Cl)c(Cl)c1Cl |  | 10.9 µM (≈ 2.7 µg/mL)
CCN1CCC(CNC(=O)c2cc(S(N)(=O)=O)c(N)cc2OC)C1 (stereo not drawn) | 0.66 | 
ON=C1CCCCC1 | 0.84 | 
CC1CCC2C(C)C(OC3OC(C(=O)O)C(O)C(O)C3O)OC3OC4(C)CCC1C32OO4 (stereo not drawn) | 1.08 | 
Cc1ccc([N+](=O)[O-])cc1C | 2.91 | 
CCN(CC)CCCN=c1cc2n(-c3ccc(Cl)cc3)c3ccccc3nc-2cc1Nc1ccc(Cl)cc1 | 8.05 | 
OCCC(F)(F)C(F)(F)C(F)(F)C(F)(F)F | 3.3 | 
COc1ccc(N=C=S)cc1 | 3.58 | 
CCOC1OC2OC3(C)CC(O)C4C(C)CCC(C1C)C24OO3 (stereo not drawn) | 2.7 | 
Cc1ccc(CN)cc1 | 1.46 | 
CNC(=O)Oc1cccc2c1OC(C)(C)C2 |  | 1450 µM (≈ 320 µg/mL)
